Test results as given in US20230143612A1 (Arbutus Biopharma Corporation, priority 2020, published 2023).

Molecular target: PD-L1 His protein / PD-1 Fc protein (Homo sapiens, UniProt Q9NZQ7)
Experiment: HTRF Assay (PD-1/PD-L1 interaction)
Type: binding
Details: PD-L1 His 6 nM, PD-1 Fc 6 nM
Outline: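 Compounds tested from 20 μM down to 0.001 μM (3-fold) against 6 nM PD-L1 His and 6 nM PD-1 Fc, 15 min room temperature incubation. Detection after 1 h at room temperature with Tb cryptate anti-6HIS and XL665 anti-human IgG reagents (mixture at 0.35 nM and 6.7 nM), HTRF signal.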

Sequence of PD-L1 His protein / PD-1 Fc protein (Q9NZQ7 19-238 limits assumed): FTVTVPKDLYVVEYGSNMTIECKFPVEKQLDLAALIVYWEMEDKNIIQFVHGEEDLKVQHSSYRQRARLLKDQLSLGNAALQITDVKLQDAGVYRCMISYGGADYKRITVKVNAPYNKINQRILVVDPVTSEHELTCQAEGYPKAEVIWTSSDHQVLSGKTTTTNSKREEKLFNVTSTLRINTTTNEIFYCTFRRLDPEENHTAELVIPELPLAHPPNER

Row | Structure (SMILES) | IC50 [nM]
1 | COc1nc(-c2cccc(-c3cccc(-c4ccn5c(=O)c(CNC[C@@H]6CCC(=O)N6)c(OC)nc5c4)c3Cl)c2Cl)ccc1CNC[C@@H]1CCC(=O)N1 [Example 201, 8-(2,2′-Dichloro-3′-(6-methoxy-5-(((((S)-5-oxopyrrolidin-2-yl)methyl)amino)methyl)pyridin-2-yl)-[1,1′-biphenyl]-3-yl)-2-methoxy-3-(((((S)-5-oxopyrrolidin-2-yl)methyl)amino)methyl)-4H-pyrido[1,2-a]pyrimidin-4-one] | 100
2 | CNC(=O)CNCc1cnc2cc(-c3cccc(-c4cccc(-c5ccc(CNC[C@@H]6CCC(=O)N6)c(OC)n5)c4Cl)c3Cl)ccn2c1=O [Example 202, (S)-2-(((8-(2,2′-Dichloro-3′-(6-methoxy-5-((((5-oxopyrrolidin-2-yl)methyl)amino)methyl)pyridin-2-yl)-[1,1′-biphenyl]-3-yl)-4-oxo-4H-pyrido[1,2-a]pyrimidin-3-yl)methyl)amino)-N-methylacetamide] | 0.1
3 | COc1c(CNC[C@@H]2CCC(=O)N2)cc(Cl)c2nc(-c3cccc(-c4cccc(-c5ccn6c(=O)c(CNC[C@@H]7CCC(=O)N7)cnc6c5)c4Cl)c3Cl)ccc12 [Example 203, 8-[2-chloro-3-[2-Chloro-3-[8-chloro-5-methoxy-6-[[[(2S)-5-oxopyrrolidin-2-yl]methylamino]methyl]-2-quinolyl]phenyl]phenyl]-3-[[[(2S)-5-oxopyrrolidin-2-yl]methylamino]methyl] pyrido[1,2-a]pyrimidin-4-one] | 150
4 | COc1nc(-c2cccc(-c3cccc(-c4ccn5c(=O)c(CN[C@H]6C[C@](C)(O)C6)c(C)nc5c4)c3Cl)c2Cl)ccc1CNC[C@@H]1CCC(=O)N1 [Example 204, 8-(2,2′-Dichloro-3′-(6-methoxy-5-(((((S)-5-oxopyrrolidin-2-yl)methyl)amino)methyl)pyridin-2-yl)-[1,1′-biphenyl]-3-yl)-3-((((1r,3r)-3-hydroxy-3-methylcyclobutyl)amino)methyl)-2-methyl-4H-pyrido[1,2-a]pyrimidin-4-one] | 0.1
5 | COc1nc(-c2cccc(-c3cccc(-c4ccn5c(=O)c(CN[C@H]6C[C@](C)(O)C6)c(C)nc5c4)c3Cl)c2Cl)ccc1CN[C@H]1C[C@](C)(O)C1 [Example 205, 8-(2,2′-Dichloro-3′-(5-((((1r,3r)-3-hydroxy-3-methylcyclobutyl)amino)methyl)-6-methoxypyridin-2-yl)-[1,1′-biphenyl]-3-yl)-3-((((1r,3r)-3-hydroxy-3-methylcyclobutyl)amino)methyl)-2-methyl-4H-pyrido[1,2-a]pyrimidin-4-one] | 0.9
6 | COc1nc(-c2cccc(-c3cccc(-c4ccn5c(=O)c(CNCCN6CCNC6=O)cnc5c4)c3Cl)c2Cl)ccc1CNC[C@@H]1CCC(=O)N1 [Example 207, (S)-8-(2,2′-Dichloro-3′-(6-methoxy-5-((((5-oxopyrrolidin-2-yl)methyl)amino)methyl)pyridin-2-yl)-[1,1′-biphenyl]-3-yl)-3-(((2-(2-oxoimidazolidin-1-yl)ethyl)amino)methyl)-4H-pyrido[1,2-a]pyrimidin-4-one] | 0.3
7 | COc1nc(-c2cccc(-c3cccc(-c4ccn5c(=O)c(CNC[C@@H]6CCC(=O)N6)cnc5c4)c3C(F)(F)F)c2Cl)ccc1CNC[C@@H]1CCC(=O)N1 [Example 208, 8-(2′-Chloro-3′-(6-methoxy-5-(((((S)-5-oxopyrrolidin-2-yl)methyl)amino)methyl)pyridin-2-yl)-2-(trifluoromethyl)-[1,1′-biphenyl]-3-yl)-3-(((((S)-5-oxopyrrolidin-2-yl)methyl)amino)methyl)-4H-pyrido[1,2-a]pyrimidin-4-one] | 38
8 | CNC(=O)C(C)(C)NCc1cnc2cc(-c3cccc(-c4cccc(-c5ccc(CNC[C@@H]6CCC(=O)N6)c(OC)n5)c4Cl)c3Cl)ccn2c1=O [Example 209, (S)-2-(((8-(2,2′-Dichloro-3′-(6-methoxy-5-((((5-oxopyrrolidin-2-yl)methyl)amino)methyl)pyridin-2-yl)-[1,1′-biphenyl]-3-yl)-4-oxo-4H-pyrido[1,2-a]pyrimidin-3-yl)methyl)amino)-N,2-dimethylpropanamide] | 0.1
9 | CNC(=O)CCNCc1cnc2cc(-c3cccc(-c4cccc(-c5ccc(CNC[C@@H]6CCC(=O)N6)c(OC)n5)c4Cl)c3Cl)ccn2c1=O [Example 210, (S)-3-(((8-(2,2′-dichloro-3′-(6-methoxy-5-((((5-oxopyrrolidin-2-yl)methyl)amino)methyl)pyridin-2-yl)-[1,1′-biphenyl]-3-yl)-4-oxo-4H-pyrido[1,2-a]pyrimidin-3-yl)methyl)amino)-N-methylpropanamide] | 0.1
10 | COc1nc(-c2cccc(-c3cccc(-c4cc(C)n5c(=O)c(CN[C@H]6C[C@](C)(O)C6)cnc5c4)c3Cl)c2Cl)ccc1CNC[C@@H]1CCC(=O)N1 [Example 211] | 21
11 | COc1nc(-c2cccc(-c3cccc(-c4ccc5nc(CNC[C@@H]6CCC(=O)N6)cc(=O)n5c4)c3Cl)c2Cl)ccc1CNC[C@@H]1CCC(=O)N1 [Example 212, 7-(2,2′-Dichloro-3′-(6-methoxy-5-(((((S)-5-oxopyrrolidin-2-yl)methyl)amino)methyl)pyridin-2-yl)-[1,1′-biphenyl]-3-yl)-2-(((((S)-5-oxopyrrolidin-2-yl)methyl)amino)methyl)-4H-pyrido[1,2-a]pyrimidin-4-one] | 0.1
12 | COc1nc(-c2cccc(-c3cccc(-c4ccn5c(=O)c(CNCC[C@@H]6CCC(=O)N6)cnc5c4)c3Cl)c2Cl)ccc1CNC[C@@H]1CCC(=O)N1 [Example 214, 8-[2-chloro-3-[2-chloro-3-[6-methoxy-5-[[[(2S)-5-oxopyrrolidin-2-yl]methylamino]methyl]-2-pyridyl]phenyl]phenyl]-3-[[2-[(2S)-5-oxopyrrolidin-2-yl]ethylamino]methyl]pyrido[1,2-a]pyrimidin-4-one] | 0.5
13 | COc1nc(-c2cccc(-c3cccc(-c4ccn5c(=O)c(CNCCc6c[nH]cn6)cnc5c4)c3Cl)c2Cl)ccc1CNC[C@@H]1CCC(=O)N1 [Example 215, 8-[2-chloro-3-[2-chloro-3-[6-methoxy-5-[[[(2S)-5-oxopyrrolidin-2-yl]methylamino]methyl]-2-pyridyl]phenyl]phenyl]-3-[[2-(1H-imidazol-4-yl)ethylamino]methyl]pyrido[1,2-a]pyrimidin-4-one] | 8
14 | COc1nc(-c2cccc(-c3cccc(-c4ccn5c(=O)c(CNCCn6cnnc6)cnc5c4)c3Cl)c2Cl)ccc1CNC[C@@H]1CCC(=O)N1 [Example 216, 8-[2-Chloro-3-[2-chloro-3-[6-methoxy-5-[[[(2S)-5-oxopyrrolidin-2-yl]methylamino]methyl]-2-pyridyl]phenyl]phenyl]-3-[[2-(1,2,4-triazol-4-yl)ethylamino]methyl]pyrido[1,2-a]pyrimidin-4-one] | 0.1
15 | COc1nc(-c2cccc(-c3cccc(-c4cnc5c(N)c(CO)sc5c4)c3Cl)c2Cl)ccc1CNC[C@@H]1CCC(=O)N1 [Example 217, (S)-5-((((6-(3′-(3-Amino-2-(hydroxymethyl)-thieno[3,2-b]-pyridin-6-yl)-2,2′-dichloro-[1,1′-biphenyl]-3-yl)-2-methoxypyridin-3-yl)methyl)amino)methyl)pyrrolidin-2-one] | 3.5
16 | COc1nc(-c2cccc(-c3cccc(-c4ccc5c(n4)OCCNC5)c3Cl)c2Cl)ccc1CNC[C@@H]1CCC(=O)N1 [Example 218, (S)-5-((((6-(2,2′-Dichloro-3′-(2,3,4,5-tetrahydropyrido[3,2-f][1,4]oxazepin-8-yl)-[1,1′-biphenyl]-3-yl)-2-methoxypyridin-3-yl)methyl)amino)methyl)887yrrolidine-2-one] | 0.6
17 | COc1nc(-c2cccc(-c3cccc(-c4ccn5c(=O)c(CNCCN6CCCC6=O)cnc5c4)c3Cl)c2Cl)ccc1CNC[C@@H]1CCC(=O)N1 [Example 219, 8-[2-Chloro-3-[2-chloro-3-[6-methoxy-5-[[[(2S)-5-oxopyrrolidin-2-yl]methylamino]methyl]-2-pyridyl]phenyl]phenyl]-3-[[2-(2-oxopyrrolidin-1-yl)ethylamino]methyl]pyrido[1,2-a]pyrimidin-4-one] | 0.7
18 | COC(=O)C[C@H](O)CNCc1cnc2cc(-c3cccc(-c4cccc(-c5ccc(CNC[C@@H]6CCC(=O)N6)c(OC)n5)c4Cl)c3Cl)ccn2c1=O [Example 220, Methyl (3S)-4-[[8-[2-chloro-3-[2-chloro-3-[6-methoxy-5-[[[(2S)-5-oxopyrrolidin-2-yl]methylamino]methyl]-2-pyridyl]phenyl]phenyl]-4-oxo-pyrido[1,2-a]pyrimidin-3-yl]methylamino]-3-hydroxy-butanoate] | 0.1
19 | COc1nc(-c2cccc(-c3cccc(-c4ccc5nc(CN[C@H]6C[C@H](O)C6)cc(=O)n5c4)c3Cl)c2Cl)ccc1CNC[C@@H]1CCC(=O)N1 [Example 221, 7-(2,2′-dichloro-3′-(6-methoxy-5-(((((S)-5-oxopyrrolidin-2-yl)methyl)amino)methyl)pyridin-2-yl)-[1,1′-biphenyl]-3-yl)-2-((((1r,3r)-3-hydroxycyclobutyl)amino)methyl)-4H-pyrido[1,2-a]pyrimidin-4-one] | 0.6
20 | COc1nc(-c2cccc(-c3cccc(-c4ccc5nc(CN6CC(C)(O)C6)cc(=O)n5c4)c3Cl)c2Cl)ccc1CNC[C@@H]1CCC(=O)N1 [Example 222, (S)-7-(2,2′-dichloro-3′-(6-methoxy-5-((((5-oxopyrrolidin-2-yl)methyl)amino)methyl)pyridin-2-yl)-[1,1′-biphenyl]-3-yl)-2-((3-hydroxy-3-methylazetidin-1-yl)methyl)-4H-pyrido[1,2-a]pyrimidin-4-one] | 0.2
21 | COc1nc(-c2cccc(-c3cccc(-c4ccn5c(=O)c(CNCCCC(F)(F)C(F)(F)F)cnc5c4)c3Cl)c2Cl)ccc1CNC[C@@H]1CCC(=O)N1 [Example 223, (S)-8-(2,2′-dichloro-3′-(6-methoxy-5-((((5-oxopyrrolidin-2-yl)-methyl)-amino)methyl)-pyridin-2-yl)-[1,1′-biphenyl]-3-yl)-3-(((4,4,5,5,5-pentafluoropentyl)amino)-methyl)-4H-pyrido[1,2-a]pyrimidin-4-one] | 10
